Data: US20260256133A1, “AN EMULSIFIABLE CONCENTRATE HAVING A (SUBSTITUTED) BENZALDEHYDE-BASED SOLVENT SYSTEM” (BASF SE, priority 2022, published 2026)

What was measured:
Soya plants = test: Phytotoxicity determination on soya; assay type: in vivo; conditions: 200 L/ha of 1% w/w emulsion (EC 90% w/w solvent, 10% w/w emulsifier), after 14 days
Method: Soya plants grown under standard greenhouse conditions in the growth stage 13 were treated with aqueous emulsions in a spray cabin. The resulting plant spray dosage represented an application rate of 200 L/ha of 1% w/w emulsion, corresponding to the application of 2 L/ha of the emulsifiable concentrate. […] The experimental period lasted 14 days, during which time the Soya plants were given optimum watering, nutrients, and light.
An assessment of 1 to 10% phytotoxicity is the limit of acceptable plant damage by farmers.

[1] = Water solubility of the solvent (method based on CIPAC MT157.1 and OECD 105); assay type: physicochemical; conditions: solvent in water, visual assessment of undissolved solvent
Method: The water solubility of the solvent was determined according to a method based on CIPAC MT157.1 and OECD 105 via the visual assessment of undissolved solvent in water after vigorous mixing and standing. Herein, various amounts of solvent and water were mixed with vigorous shaking in a glass-stoppered graduated cylinder or separating funnel, followed by standing for at least 30 min to enable separation. […] This method can be repeated with various amounts of solvent and water to enable the determination of the water-solubility of the solvent.

Row | Structure (SMILES) | phytotoxicity (visual, scale 0% to 100%) (Soya plants) | water solubility [1]
1 | CCCCC(CC)COC(=O)C(C)O (stereo not shown) [2-Ethyl hexyl lactate, 2-Ethylhexyl Lactate] | 30% | –
2 | COc1ccc(C=O)cc1 [4-anisaldehyde] | 0% | 0.20 % w/w
3 | CCCCCCCCCC(=O)N(C)C [Dimethyl decanamide, dimethyl decanamide] | 50% | –
